# “Also recorded” adds a separate entry of the source.
# What was measured:
# human mGlu7 = molecular target: T1, human mGlu7 (Homo sapiens, UniProt Q14831); conditions: decrease forskolin-stimulated cAMP, cited from earlier work
# T1 construct: expressed in transfected cells; host or cells: RGT cells (cells expressing the rat glutamate transporter)
# [1] = tested on: PCP-induced motor activation (ambulations); assay: PCP-induced motor activation (ambulations) in rats; type: in vivo, rat; conditions: PCP 5 mg/kg s.c., 60 min
# Protocol: In the present experiments, studies were performed in accordance with Eli Lilly and Company animal care and use policies. Male Sprague-Dawley rats (250-300 g) were group-housed (maximum of seven rats per cage) under standard laboratory conditions with ad libitum access to food and water (12 h light/dark cycle), for at least 1 day before use.
# Activity Assessment compounds were tested against PCP-induced motor activation (ambulations) in rats. Behavioral parameters were monitored in transparent, shoe-box cages that measured 45×25×20 cm, with a 1 cm depth of wood chips on the cage floor and a metal grill on top of the cage. Rectangular photocell monitors (Hamilton Kinder, Poway, Calif.) with a bank of […] (8×4 formation) surrounded each test cage. A lower rack of photocell beams was positioned 5 cm above the cage floor to enable detection of the location of the animals body, while an upper bank positioned 10 cm above the first tabulated rearing activity. Ambulations (locomotor activity) and rearing were recorded by the computer and stored for each test session as discussed in Male Sprague-Dawley rats were generally food-fasted 12-18 hours prior to the experiment. In some experiments, rats were allowed food and water ad libitum prior to the experiment. On the test day animals were placed in the test cage for a 30 min habituation period before to testing to allow for acclimation to the test cage environment. Following this habituation period, animals were administered challenges of phencyclidine (PCP) (5 mg/kg s.c.) or 0.9% NaCl vehicle (1 ml/kg) and behavioral assessment began immediately following their administration. Animals were monitored over a 60 min period in all instances. Test drugs or vehicle were administered at various pretreatment times prior to the PCP challenge.
# Statistical analysis. Statistical Analysis were carried out using the GraphPad PRISM statistical/graphing package (GraphPad, SanDiego, Calif.). Data were analyzed using a one-way analysis of variance (ANOVA) and post-hoc comparisons were performed using Dunnett's multiple comparisons test.
# The rats were tested 30 minutes post-injection of the test compound or vehicle. Behaviors were monitored over a 60 minute time period following S.C. injection of PCP or vehicle. Data (mean±S.E.) are presented as the total number of behaviors expressed during the timer period.
# human mGlu5 = molecular target: T2, human mGlu5 (Homo sapiens, UniProt P41594); conditions: increase PI hydrolysis, cited from earlier work
# T2 construct: expressed in transfected cells; host or cells: RGT cells (cells expressing the rat glutamate transporter)
# T2 sequence (P41594 21-1180 isoform P41594-2 limits assumed): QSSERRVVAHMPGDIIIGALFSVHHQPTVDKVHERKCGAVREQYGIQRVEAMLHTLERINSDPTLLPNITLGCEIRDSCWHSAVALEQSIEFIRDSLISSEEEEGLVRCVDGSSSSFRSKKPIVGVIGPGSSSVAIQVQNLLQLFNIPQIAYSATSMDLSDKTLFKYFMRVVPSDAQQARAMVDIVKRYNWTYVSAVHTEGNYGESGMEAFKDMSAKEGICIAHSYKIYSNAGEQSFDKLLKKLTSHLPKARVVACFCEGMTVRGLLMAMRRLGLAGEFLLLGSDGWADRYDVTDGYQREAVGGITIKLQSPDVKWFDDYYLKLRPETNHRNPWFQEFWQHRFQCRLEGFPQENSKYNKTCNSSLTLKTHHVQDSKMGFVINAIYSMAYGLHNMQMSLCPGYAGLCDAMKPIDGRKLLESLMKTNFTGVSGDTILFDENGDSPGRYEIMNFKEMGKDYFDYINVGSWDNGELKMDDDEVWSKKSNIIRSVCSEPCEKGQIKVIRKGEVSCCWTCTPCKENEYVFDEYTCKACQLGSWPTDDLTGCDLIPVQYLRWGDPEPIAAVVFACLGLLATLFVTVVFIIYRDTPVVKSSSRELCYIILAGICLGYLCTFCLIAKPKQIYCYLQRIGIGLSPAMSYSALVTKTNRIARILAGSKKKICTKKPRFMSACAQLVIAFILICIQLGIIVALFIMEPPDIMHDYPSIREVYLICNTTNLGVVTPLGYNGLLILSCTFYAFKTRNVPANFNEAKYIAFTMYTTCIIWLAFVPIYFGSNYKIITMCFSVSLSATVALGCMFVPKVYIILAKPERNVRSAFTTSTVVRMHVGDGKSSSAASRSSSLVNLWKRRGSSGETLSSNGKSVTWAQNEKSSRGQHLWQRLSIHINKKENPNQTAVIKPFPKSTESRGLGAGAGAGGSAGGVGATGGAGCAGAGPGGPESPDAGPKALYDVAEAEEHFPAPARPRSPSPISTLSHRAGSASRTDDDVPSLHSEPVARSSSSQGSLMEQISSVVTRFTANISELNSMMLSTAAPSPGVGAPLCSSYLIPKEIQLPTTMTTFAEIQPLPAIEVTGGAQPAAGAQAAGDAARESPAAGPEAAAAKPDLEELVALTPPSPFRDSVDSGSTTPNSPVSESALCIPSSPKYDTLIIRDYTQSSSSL
# human mGlu3 = molecular target: T3, human mGlu3 (Homo sapiens, UniProt Q14832); conditions: decrease forskolin-stimulated cAMP, mean ± S.E.M., read-out: EC50 (nM) (Agonist Activity); cited from earlier work
# T3 construct: expressed in transfected cells; host or cells: RGT cells (cells expressing the rat glutamate transporter)
# human mGlu4 = molecular target: T4, human mGlu4 (Homo sapiens, UniProt Q14833); conditions: decrease forskolin-stimulated cAMP, cited from earlier work
# T4 construct: expressed in transfected cells; host or cells: RGT cells (cells expressing the rat glutamate transporter)
# T4 sequence (Q14833 33-912): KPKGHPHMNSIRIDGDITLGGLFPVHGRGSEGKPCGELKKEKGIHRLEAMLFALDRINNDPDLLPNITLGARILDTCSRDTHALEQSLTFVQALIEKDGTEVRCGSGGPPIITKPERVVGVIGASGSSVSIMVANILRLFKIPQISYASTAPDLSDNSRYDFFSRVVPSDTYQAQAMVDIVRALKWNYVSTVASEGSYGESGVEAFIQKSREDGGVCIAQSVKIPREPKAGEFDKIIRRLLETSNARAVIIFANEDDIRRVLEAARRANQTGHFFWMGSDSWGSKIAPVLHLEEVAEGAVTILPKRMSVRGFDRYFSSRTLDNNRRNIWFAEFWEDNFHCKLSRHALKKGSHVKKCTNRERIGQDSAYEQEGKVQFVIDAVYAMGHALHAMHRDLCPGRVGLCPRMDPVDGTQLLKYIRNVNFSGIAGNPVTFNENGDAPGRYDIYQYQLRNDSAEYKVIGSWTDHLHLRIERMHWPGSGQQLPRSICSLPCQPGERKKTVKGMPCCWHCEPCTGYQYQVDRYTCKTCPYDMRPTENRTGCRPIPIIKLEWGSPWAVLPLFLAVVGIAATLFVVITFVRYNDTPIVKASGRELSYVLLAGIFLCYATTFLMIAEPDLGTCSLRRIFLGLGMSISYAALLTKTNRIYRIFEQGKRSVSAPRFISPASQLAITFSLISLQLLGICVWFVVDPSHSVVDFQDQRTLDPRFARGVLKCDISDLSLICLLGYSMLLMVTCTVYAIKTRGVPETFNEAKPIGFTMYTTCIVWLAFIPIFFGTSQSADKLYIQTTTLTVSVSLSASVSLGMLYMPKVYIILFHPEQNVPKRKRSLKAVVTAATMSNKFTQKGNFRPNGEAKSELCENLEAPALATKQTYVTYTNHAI
# human mGlu8 = molecular target: T5, human mGlu8 (Homo sapiens, UniProt O00222); conditions: decrease forskolin-stimulated cAMP, mean ± S.E.M., read-out: EC50 (nM) (Agonist Activity); cited from earlier work
# T5 construct: expressed in transfected cells; host or cells: RGT cells (cells expressing the rat glutamate transporter)
# human mGlu2 = molecular target: T6, human mGlu2 (Homo sapiens, UniProt Q14416); conditions: decrease forskolin-stimulated cAMP, mean ± S.E.M., read-out: EC50 (nM) (Agonist Activity); cited from earlier work
# T6 construct: expressed in transfected cells; host or cells: RGT cells (cells expressing the rat glutamate transporter)
# T6 sequence (Q14416 19-872): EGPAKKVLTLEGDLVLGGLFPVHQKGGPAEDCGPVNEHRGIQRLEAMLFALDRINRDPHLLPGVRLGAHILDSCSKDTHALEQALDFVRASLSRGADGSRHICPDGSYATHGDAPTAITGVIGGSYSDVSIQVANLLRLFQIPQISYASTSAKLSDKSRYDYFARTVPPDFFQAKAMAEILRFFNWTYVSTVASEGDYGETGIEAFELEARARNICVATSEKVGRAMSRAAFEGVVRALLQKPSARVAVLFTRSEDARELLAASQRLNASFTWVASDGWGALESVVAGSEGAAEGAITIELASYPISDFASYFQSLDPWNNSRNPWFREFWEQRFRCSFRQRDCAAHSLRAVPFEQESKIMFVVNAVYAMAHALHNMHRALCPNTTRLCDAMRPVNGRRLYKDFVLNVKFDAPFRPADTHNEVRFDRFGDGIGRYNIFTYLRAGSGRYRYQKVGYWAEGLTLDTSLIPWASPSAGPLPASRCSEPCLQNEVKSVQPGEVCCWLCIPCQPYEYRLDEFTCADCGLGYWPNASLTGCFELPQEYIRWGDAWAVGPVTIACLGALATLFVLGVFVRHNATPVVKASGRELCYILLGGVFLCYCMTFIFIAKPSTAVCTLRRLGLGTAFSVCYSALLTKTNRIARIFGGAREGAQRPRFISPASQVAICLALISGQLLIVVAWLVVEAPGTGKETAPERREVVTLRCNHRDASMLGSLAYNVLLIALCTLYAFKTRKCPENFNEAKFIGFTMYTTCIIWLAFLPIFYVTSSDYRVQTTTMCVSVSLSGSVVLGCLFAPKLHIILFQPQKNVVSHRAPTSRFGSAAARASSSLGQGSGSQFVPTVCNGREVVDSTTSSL
# human mGlu1 = molecular target: T7, human mGlu1 (Homo sapiens, UniProt Q13255); conditions: increase PI hydrolysis, cited from earlier work
# T7 construct: expressed in transfected cells; host or cells: RGT cells (cells expressing the rat glutamate transporter)
# T7 sequence (Q13255 19-1194): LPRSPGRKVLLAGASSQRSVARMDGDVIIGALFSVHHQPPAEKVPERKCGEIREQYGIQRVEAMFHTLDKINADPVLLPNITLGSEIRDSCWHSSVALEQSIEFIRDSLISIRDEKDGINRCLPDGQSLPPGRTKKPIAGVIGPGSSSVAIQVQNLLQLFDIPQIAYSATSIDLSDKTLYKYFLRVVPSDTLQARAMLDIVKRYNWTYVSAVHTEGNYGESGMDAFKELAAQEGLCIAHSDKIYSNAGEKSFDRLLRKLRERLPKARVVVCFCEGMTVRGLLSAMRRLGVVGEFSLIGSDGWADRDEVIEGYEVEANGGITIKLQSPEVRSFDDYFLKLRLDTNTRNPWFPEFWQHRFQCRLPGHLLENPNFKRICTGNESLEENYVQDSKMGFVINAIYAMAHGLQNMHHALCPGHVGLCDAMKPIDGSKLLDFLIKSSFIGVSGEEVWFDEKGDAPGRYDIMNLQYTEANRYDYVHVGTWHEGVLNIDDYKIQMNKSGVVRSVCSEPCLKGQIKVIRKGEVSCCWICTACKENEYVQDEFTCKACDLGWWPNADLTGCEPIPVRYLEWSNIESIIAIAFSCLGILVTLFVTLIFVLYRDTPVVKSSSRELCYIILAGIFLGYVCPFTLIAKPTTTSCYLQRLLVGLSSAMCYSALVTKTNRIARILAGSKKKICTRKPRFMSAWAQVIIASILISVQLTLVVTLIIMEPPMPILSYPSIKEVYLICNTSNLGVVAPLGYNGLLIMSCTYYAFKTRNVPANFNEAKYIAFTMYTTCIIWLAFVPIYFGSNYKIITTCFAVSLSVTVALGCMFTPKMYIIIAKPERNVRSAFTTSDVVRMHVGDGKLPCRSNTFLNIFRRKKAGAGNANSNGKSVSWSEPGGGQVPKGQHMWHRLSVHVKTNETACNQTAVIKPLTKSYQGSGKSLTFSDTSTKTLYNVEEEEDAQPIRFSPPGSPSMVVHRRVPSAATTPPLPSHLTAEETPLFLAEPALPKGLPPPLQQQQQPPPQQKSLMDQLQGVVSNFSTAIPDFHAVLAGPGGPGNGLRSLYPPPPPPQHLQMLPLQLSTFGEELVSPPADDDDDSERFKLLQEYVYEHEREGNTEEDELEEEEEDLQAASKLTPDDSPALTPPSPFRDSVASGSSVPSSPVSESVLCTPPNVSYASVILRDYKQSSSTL
# [2] = read-out: EC50 (nM) (Agonist Activity)
# [3] = read-out: IC50 (nM) (Antagonist Activity)
# T1 sequence (Q14831 35-915): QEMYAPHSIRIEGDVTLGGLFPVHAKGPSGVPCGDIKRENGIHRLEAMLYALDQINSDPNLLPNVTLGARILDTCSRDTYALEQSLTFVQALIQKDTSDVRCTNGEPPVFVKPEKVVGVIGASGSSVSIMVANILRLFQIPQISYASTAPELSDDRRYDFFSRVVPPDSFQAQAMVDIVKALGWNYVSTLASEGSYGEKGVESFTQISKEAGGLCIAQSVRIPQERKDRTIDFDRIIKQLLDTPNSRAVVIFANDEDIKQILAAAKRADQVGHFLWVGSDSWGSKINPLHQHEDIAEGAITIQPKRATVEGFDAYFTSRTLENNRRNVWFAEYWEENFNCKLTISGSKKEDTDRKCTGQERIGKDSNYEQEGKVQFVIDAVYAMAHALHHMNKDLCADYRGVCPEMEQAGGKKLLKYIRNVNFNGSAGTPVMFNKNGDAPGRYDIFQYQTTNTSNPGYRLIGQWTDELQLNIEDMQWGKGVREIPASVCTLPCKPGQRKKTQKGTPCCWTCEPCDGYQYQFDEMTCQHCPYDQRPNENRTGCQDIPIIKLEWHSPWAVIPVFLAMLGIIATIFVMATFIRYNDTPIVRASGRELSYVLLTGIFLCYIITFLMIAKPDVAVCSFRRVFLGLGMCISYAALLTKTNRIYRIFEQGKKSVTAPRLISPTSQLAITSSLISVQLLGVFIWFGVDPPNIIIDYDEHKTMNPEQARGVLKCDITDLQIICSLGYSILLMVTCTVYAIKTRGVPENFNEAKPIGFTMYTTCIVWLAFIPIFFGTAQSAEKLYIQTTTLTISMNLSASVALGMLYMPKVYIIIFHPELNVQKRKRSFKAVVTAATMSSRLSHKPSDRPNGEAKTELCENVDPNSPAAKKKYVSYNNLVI
structure (smiles),measurement,setting,value
"NC1(C(=O)O)CCC2C(C(=O)O)C21 (single isomer, unassigned; (+)) [LY354740, (+)-2-aminobicyclo[3.1.0]hexane-2,6-dicarboxylic acid]",EC50,human mGlu7; [2],> 100000 nM
same,IC50,human mGlu7; [3],> 100000 nM
same,effect on PCP-induced ambulations,[1]; single agent 10 mg/kg,statistically insignificant effect
same,EC50,human mGlu5; [2],> 100000 nM
same,IC50,human mGlu5; [3],> 100000 nM
same,EC50,human mGlu3,24.3 ± 0.5 nM
same,EC50,human mGlu4; [2],> 100000 nM
same,IC50,human mGlu4; [3],> 100000 nM
same,EC50,human mGlu8,36000 nM
same,EC50,human mGlu2,5.1 ± 0.3 nM
same,EC50,human mGlu1; [2],> 100000 nM
same,IC50,human mGlu1; [3],> 100000 nM
"N[C@@]1(C(=O)O)CO[C@H]2[C@H](C(=O)O)[C@H]21 [LY379268, 1R,4R,5S,6R-4-amino-(2-oxabicyclo[3.1.0]hexane)-4,6-dicarboxylic acid]",effect on PCP-induced ambulations,[1]; single agent 1 mg/kg,smaller and statistically insignificant effect
"Cc1cc2c(s1)Nc1ccccc1N=C2N1CCN(C)CC1 [Olanzapine, 2-methyl-4-(4-methyl-1-piperazinyl)-10H-thieno[2,3-b][1,5]benzodiazepine, reference compound]",effect on PCP-induced ambulations,[1]; single agent 1 mg/kg,significant impact; also recorded: minimal impact
"N[C@]1(C(=O)O)C[C@H](F)[C@@H]2[C@@H](C(=O)O)[C@@H]21 [LY459477, (1S,2R,4S,5S,6S)-2-amino-4-fluorobicyclo[3.1.0]hexane-2,6-dicarboxylic acid]",effect on PCP-induced ambulations,[1]; single agent 1 mg/kg,relatively small impact; also recorded: statistically insignificant effect
